We go through two compounds from patent EP4745151A1, “FIBROBLAST ACTIVATION PROTEIN LIGAND AND USE THEREOF” (Jiangsu Hengrui Pharmaceuticals Co., Ltd., priority 2023, dated 2025).

Read-outs that look alike come from different tables or passages of the source. Numbered stars: 1 amine (or outer) side, 2 acyl side, 3 side chain; on linkers, the order of the positions; unused ones are H or OH. Bridge positions count the residues as written; N and C are the ends. Square brackets hold non-standard residues; d marks the D form. Peptide text beside a SMILES is read from it. * marks the point of attachment. TBMB(SCH2CH2NH-DOTA) = O=C(O)CN1CCN(CC(=O)O)CCN(CC(=O)NCCSCc2cc(C[*:1])cc(C[*:2])c2)CCN(CC(=O)O)CC1; Phe(2-CF3) = N[C@@H](Cc1ccccc1C(F)(F)F)C(=O)O; Hyp = O=C(O)[C@@H]1C[C@@H](O)CN1; Hexanoyl = CCCCCC(=O)*; Aib = CC(C)(N)C(=O)O

For data set [1], the system named is U-87 MG cells. The experiment in a line: In vivo efficacy experiment in U-87 MG model mice. Also on record: species or system B-NDG mice. The procedure: A total of 90 mice were inoculated. When the tumour in the mice grew to about […], 40 mice with uniform tumour sizes were selected for study enrolment.
The administration regimen was as follows: • Route of administration: tail vein injection; • Administration volume: 0.03-0.07 mL/animal; • Administration frequency and dose: The control group was given PBS, the ^177Lu-FAP-2286 group was given a single dose of 0.8 mCi/animal, the ^177Lu-DOTA-09 0.4mCi group was given a single dose of 0.4 mCi/animal, the ^177Lu-DOTA-09 0.8 mCi group was given a single dose of 0.8 mCi/animal, the ^177Lu-DOTA-09 0.8mCi×2 group was given two doses of 0.8 mCi/animal, with an administration interval of 35 days. Each group included eight animals. The administration time and administration activity of each mouse were recorded in detail.
After tumour modelling, the tumour size was observed. On the day before administration or the day of administration, the tumour volume was measured using a digital calliper, and the animal body weight was recorded. The animals were evenly divided into five groups on the basis of tumour volume, as follows: control group, ^177Lu-FAP-2286 0.8 mCi group, ^177Lu-DOTA-09 0.4 mCi group, ^177Lu-DOTA-09 0.8 mCi group, and ^177Lu-DOTA-09 0.8 mCi*2 group, with eight animals in each group.
On the day of administration, the test sample was taken for preparation (the stock solution of the test sample was directly used), and the activity of the prepared solution was measured.
From the second day after administration, the stage of tumour and body weight measurement began. The tumour and body weight measurement was performed at least twice a week. During each measurement, the long and short diameters of the tumour were recorded. The measurements were kept at the same location as possible. The abnormalities and deaths of the animals were recorded in time. […] The tumour volume was calculated as follows: tumour volume (mm^3) = long diameter × short diameter × short diameter × 0.52.

For data set [2] the following is noted: rat, in vivo.
Experimental: (§1) Experimental animals: Germline: SD rat (Beijing Vital River Laboratory Animal Technology Co., Ltd.); Age: 5-6 weeks old; Body weight: 100-150 g.
(§2) • 1) Empty tubes for γ-counting were weighed and labelled in advance. • 2) After the test sample was injected into the tail vein of rats, animal blood samples were collected from the orbit at 2 min, 5 min, 15 min, 30 min, 1 h, 2 h, 4 h, 6 h, 24 h, 48 h and 72 h. The sample tubes containing blood were weighed. • 3) The net weight of the blood was calculated, and the radioactive count of the collected blood was determined using a γ-counter. • 4) The distribution of the labelled compound in the blood of rats at different time points was determined. The test sample was accurately diluted 100-fold, and 0.5 ml of the dilution was added to a counting tube to serve as a 1% ID standard (i.e., one percent of the injected dose). The radioactive counts of both the 1% ID standard and the biological samples were simultaneously determined using the γ-counter. • 5) The pharmacokinetic parameters were calculated using DAS software.
(§3) Data obtained from rat blood was expressed as the percentage of radioactive count per gram of blood relative to the total dose (radioactive count) (%ID/g). Specific calculation formula: [formula]
(§4) At the same time, the drug concentration in the blood was calculated on the basis of the radioactive count in the blood. Specific calculation formula: Plasma concentration (μCi/mL) = ((CPMBlood/CPMTotal administered dose) × D (μCi)Administered dose)/(w (g) Blood/i (g/mL)Blood density) [formula]
For data set [3], the system named is U-87 MG cells. As to conditions: mouse, in vivo.
Experimental: (§5) Experimental animals: Germline: B-NDG (Biocytogen Jiangsu Co., Ltd.); Age: 5-8 weeks old; Body weight: 20-24 g.
(§6) A sufficient quantity of U-87 MG cells was prepared and inoculated into the posterior position of the right forelimb of B-NDG mice in an inoculation volume of 100 µl, containing 50% Matrigel and 5 × 10^6 cells. After inoculation, the tumour volume and animal body weight were monitored twice a week. Model mice with a tumour volume between 200 and 500 m^3 were selected for enrolment in this experiment and randomly grouped on the basis of tumour volume.
A short description of data set [4]: PET/SPECT imaging test of labelled compounds in U-87 MG tumour-bearing mice. The following applies: B-NDG, mouse, tumour and kidney, iv, total radioactivity.
Experimental: as §5, §6
For data set [5], the system named is U-87 MG cells. The description is as above. As to conditions: for Tumour uptake: 177Lu-labelled.
Experimental: as §5, §6
Data set [6] is described as follows: Plasma concentration (pharmacokinetic) experiment of 177Lu-labelled compounds. The following applies: for tissue uptake: SD, rat, whole blood, iv, total radioactivity.
Experimental: as §1, §2, §3, §4

Take `CCCCCC(=O)N[C@H]1CSCc2cc(CSCCNC(=O)CN3CCN(CC(=O)O)CCN(CC(=O)O)CCN(CC(=O)O)CC3)cc(c2)CSC[C@@H](C(=O)O)NC(=O)[C@H](Cc2ccccc2C(F)(F)F)NC(=O)[C@H](CCC(N)=O)NC(=O)[C@H]([C@@H](C)O)NC(=O)[C@@H]2C[C@@H](O)CN2C(=O)[C@@H]2CCCN2C(=O)C(C)(C)NC1=O` [^177Lu-DOTA-09, metal not drawn] (Hexanoyl-C[Aib]P[Hyp]TQ[Phe(2-CF3)]C-OH; linker 1-8 via TBMB(SCH2CH2NH-DOTA)): the “body weight changes of mice” value in data set [1] (during administration, all dose groups) is listed as “No significant body weight changes”. In data set [2], the “half-life (t1/2) compared with control” value was “significantly longer” and the t1/2 was found to be 9.12 ± 4.69 h. Further, the “course of tumour uptake / intratumoral retention” value in data set [3] was “decreased slowly”. In data set [4], the tissue to tissue ratio at 0.5 h came out at 6.08 ± 1.62, the tissue to tissue ratio at 1.5 h was 8.66 ± 0.73, the tissue to tissue ratio at 4 h is 11.8 ± 2.62 and the tissue to tissue ratio at 24 h was found to be 19.4 ± 5.84. Also, in data set [5] (Table 5, 0.5 h), the Tumour uptake is 29.52±2.98. The Tumour uptake in data set [5] (Table 5, 1.5 h) is on record as 30.88±3.14. Further, the Tumour uptake in data set [5] (Table 5, 4.0 h) is 31.09±3.88. In addition, the Tumour uptake in data set [5] (Table 5, 24h) came to 30.46±1.99. The Tumour uptake in data set [5] (Table 5, 48h) was determined as 24.10±2.21. Moreover, in data set [5] (Table 5, 72h), the Tumour uptake came to 20.59±1.91. In data set [5] (Table 5, 168h), the Tumour uptake was found to be 12.81±0.90. The “tumour/kidney ratio compared with control” value in data set [5] (versus 177Lu-FAP-2286, in words) is recorded as “higher”. For the same compound, in data set [6] (SD rat, tail vein, blood), the Cl_obs was 0.10±0.02 µCi/h*%ID/g, the Cmax amounted to 0.89±0.21 %ID/g, the MRTlast was found to be 15.49 ± 0.36 h and the Vz_obs was 2.21±0.38 µCi/%ID/g. The tissue uptake in data set [6] (AUCINF_obs, SD rat, tail vein, blood) turned out to be 5.28 ± 1.07. Also, the tissue uptake in data set [6] (AUClast, SD rat, tail vein, blood) was determined as 5.04 ± 0.94. Further, in data set [6] (rats, versus 177Lu-FAP-2286, in words), the “mean residence time (MRTlast) compared with control” value is “significantly longer”.
`CCCCCC(=O)N[C@H]1CSCc2cc(CSCCNC(=O)CN3CCN(CC(=O)O)CCN(CC(=O)O)CCN(CC(=O)O)CC3)cc(c2)CSC[C@@H](C(=O)O)NC(=O)[C@H](Cc2ccccc2)NC(=O)[C@H](CCC(N)=O)NC(=O)[C@H]([C@@H](C)O)NC(=O)[C@@H]2CCCN2C(=O)[C@@H]2CCCN2C1=O` [^177Lu-FAP-2286, metal not drawn] displayed a tumour inhibition rate in data set [1] (day 20 after administration, single dose of 0.8 mCi/animal) of 40.02%. In data set [1] (day 20 after administration, single dose of 0.8 mCi/animal, tail vein), this compound gave a tumour size of 1833.89 ± 338.00 mm^3. The compound also gave a median survival time in data set [1] (single dose of 0.8 mCi/animal) of 39 days. Besides, in data set [2], the Cl_obs was found to be 0.53±0.08 µCi/h*%ID/g, the Cmax is given as 0.73±0.27 %ID/g, the MRTlast was 2.52 ± 0.34 h and the Vz_obs is given as 1.50±0.97 µCi/%ID/g. The compound further showed a t1/2 in data set [2] of 1.29 ± 0.43 h. For the same compound, in data set [3], the “course of tumour uptake / intratumoral retention” value is given as “rapid decrease in intratumoral retention after 4 hours”. Also, in data set [4], the tissue to tissue ratio at 0.5 h was determined as 3.29 ± 0.78, the tissue to tissue ratio at 1.5 h was determined as 6.53 ± 1.12, the tissue to tissue ratio at 4 h turned out to be 9.82 ± 4.79 and the tissue to tissue ratio at 24 h turned out to be 2.75 ± 0.9.
